This is an account of results in patent US20220050096A1, “ANALYTE-SENSITIVE PROBES AND CONTACT LENS FOR DIAGNOSIS OF OCULAR PATHOLOGIES” (University Of Maryland, Baltimore, priority 2020, published 2022).

For data set [1] the following is noted: cited from earlier work.
The nature of data set [2]: Chloride quenching (Stern-Volmer) of SPQ-C3 in water. It is filed as physicochemical. As to the method:
Quenching by Chloride. Collisional quenching occurs, for example, when SPQ-C18 (also referred to as OD-MQB (N-Octadecyl-6-methoxyquinolinium bromide)) has a diffusion collision with a chloride ion. The intensities (I) and lifetimes (6) are analyzed using the Stern-Volmer equation,
where F0 and τ0 are the intensities and lifetimes in the absence of chloride, and K is the quenching constant and the inverse of the [Cl^−] needed for 50% quenching. For collisional quenching, the value of F0/F and τ0/τ are typically the same. In solution, in the absence of lenses, the value of K=kq τ0 can be used to calculate the biomolecular quenching constant kq and the quenching efficiency. In the lenses, the [Cl−] may not be the same as in the bulk solution, but kq in the lenses is estimated by assuming the same concentration of chloride around the SPQ moiety in the lenses and in bulk solutions.
This approach for SPQ-C18 in lenses is shown in both intensities and amplitude-weighted lifetimes (FIG. 35A and FIG. 35B). […] This behavior is different from SG-PL where the binding site can be saturated at high Na^+ concentrations. In contrast, quenching of OD-MQB, both intensity and lifetime, continue to decrease as the chloride concentration increased. The steady-state intensities and intensity decays can be used to calculate the bimolecular quenching constant kq. This value can be interpreted by comparison with quenching of a fluorophore in solution without any steric barriers. For this measurement the water-soluble fluorophore 1-propenyl-6-methoxyquinolinium bromide (SPQ-C3) was used. This is the same structure of SPQ-C18 but with a shorter, three carbon propenyl chain. The unquenched lifetime (τ0) of P-MQB was 26 ns, and the Stern-Volmer constant K was 140 M^−1. From these values, we calculated the kq of 5.4×10^9 M^−1 sec^−1 which is a typical value for efficient quenching.
Emission spectra and time-dependent decays were obtained (data not shown). Stern-Volmer plots were obtained in water and in a Stenfilcon A (Aspire™) contact lens by plotting the normalized intensities with respect to the added chloride concentrations.

The mark [3] stands for this setting: cation-bound form (in parentheses).

For the compound `COc1cc2cc(-c3ccc(C(=O)O)cc3C(=O)O)oc2cc1N1CCOCCOCCN(c2cc3oc(-c4ccc(C(=O)O)cc4C(=O)O)cc3cc2OC)CCOCCOCC1` [PBF ?], in data set [1] (setting [3]), the “Lifetime (ns), cation-bound form” value is on record as 0.72 ns and the “Q, cation-bound form” value is recorded as 0.72. In addition, in data set [1] (free form), the “Lifetime (ns), free form” value is 0.47 ns and the “Q, free form” value is 0.24.
Compound `CC=C[n+]1cccc2cc(OC)ccc21.[Br-]` [SPQ-C3, 1-propenyl-6-methoxyquinolinium bromide] returned a bimolecular quenching constant in data set [2] (in Water) of 5.4e+09 M⁻¹ s⁻¹. In data set [2] (in solution), the “Stern-Volmer constant K” value worked out at 140 M⁻¹ and the “unquenched lifetime (τ0)” value was determined as 26 ns. Also, in data set [2] (in solution, listed as P-MQB), the “bimolecular quenching constant kq” value is 5.4e+09 M⁻¹ s⁻¹.
